For assay [1], the target named is T1, AfUGM (Aspergillus fumigatus, UniProt Q4W1X2). Nature of the assay: Stopped-flow kinetics of flavin reduction of AfUGM by NAD. The note with it: for kred / Kd / kred/Kd: AfUGM wild type; for kred / Kd: anaerobic, 15 °C; for kred: pH 7.0, flavin absorbance 452 nm; for Kd: pH 7.0, from fit of kobs; for kred/Kd: catalytic efficiency. It counts as biochemical.
Assay [2] deals with T1, AfUGM. Nature of the assay: Kinetic isotope effect on flavin reduction of AfUGM with deuterated coenzymes. The assay is classed as biochemical.
Assay [3] concerns the target AfUGM S93A (Aspergillus fumigatus, UniProt Q4W1X2, S93A). It counts as biochemical. As to conditions: S93A mutant.
In assay [4] the target is AfUGM R91A (Aspergillus fumigatus, UniProt Q4W1X2, R91A). The assay is classed as biochemical. The note with it: R91A mutant.
The target of assay [5] is TcUGM. The note with it: cited from earlier work.
The target in assay [6] is Mycobacterium tuberculosis UGM (Mycobacterium tuberculosis, UniProt P9WIQ1). Nature of the assay: Reduction of Mycobacterium tuberculosis UGM by NADPH. It counts as biochemical. The note with it: estimated (Figure S5).
Setting [7] is: pro-R H atom substituted with D.

Structures are written as SMILES. Values joined by “and” are separate entries in the source; they are usually repeats but may differ in a detail not shown here. Equal values may be shown once.

A word on the Kd: it is the equilibrium constant for the complex coming apart. For the compound `NC(=O)C1=CN([C@@H]2O[C@H](COP(=O)(O)OP(=O)(O)OC[C@H]3O[C@@H](n4cnc5c(N)ncnc54)[C@H](O)[C@@H]3O)[C@@H](O)[C@H]2O)C=CC1` [NADH], in assay [1], the kred is 0.2 s⁻¹ and 0.172 ± 0.003 s⁻¹; the Kd was determined as 260 ± 20 µM; the kred/Kd is 670 M⁻¹ s⁻¹ and 670 ± 50 M⁻¹ s⁻¹. For the same compound, in assay [2] (setting [7]), the “KIE on flavin reduction” value came out at 6.0 ± 0.7.
In the case of `NC(=O)C1=CN([C@@H]2O[C@H](COP(=O)(O)OP(=O)(O)OC[C@H]3O[C@@H](n4cnc5c(N)ncnc54)[C@H](OP(=O)(O)O)[C@@H]3O)[C@@H](O)[C@H]2O)C=CC1` [NADPH], the Kd is 21 ± 8 µM in assay [3], 330 ± 20 µM in assay [4], 98 µM in assay [5] and 25 ± 2 µM in assay [1]. The “Variational Effect (kred/Kd of variant)/(kred/Kd of AfUGM)” value in assay [3] was 0.07 ± 0.03; in assay [4], 0.008 ± 0.001. Also, the kred/Kd in assay [3] is 8000 ± 3000 M⁻¹ s⁻¹; in assay [4], 980 ± 70 M⁻¹ s⁻¹; in assay [5], 6000 M⁻¹ s⁻¹; in assay [1], 120000 M⁻¹ s⁻¹ and 120000 ± 10000 M⁻¹ s⁻¹. The kred in assay [3] (anaerobic, 15 °C, pH 7.0) is 0.17 ± 0.01 s⁻¹; in assay [4] (anaerobic, 15 °C, pH 7.0), 0.313 ± 0.008 s⁻¹; in assay [5], 0.6 s⁻¹; in assay [1], 3 s⁻¹ and 2.98 ± 0.078 s⁻¹; in assay [6] it was 0.00002 s⁻¹. Also, the “catalytic efficiency of AfUGM relative to TcUGM” value in assay [1] (kred/Kd AfUGM vs TcUGM) is listed as 20 times. Also, the “KIE on flavin reduction” value in assay [2] (setting [7]) stood at 3.0 ± 0.1.
For the compound `[2H]C1C=CN(C2OC(COP(=O)(O)OP(=O)(O)OCC3OC(n4cnc5c(N)ncnc54)C(OP(=O)(O)O)C3O)C(O)C2O)C=C1C(N)=O` (stereo not shown) [pro-S NADPD], the “KIE on flavin reduction” value in assay [2] (pro-S deuterated coenzyme used to reduce AfUGM) came out at 0.93 ± 0.03.

(Values after article PMC3493617 (Journal of the American Chemical Society, 2012).)
